Reference: PubChem BioAssay AID248 (DTP/NCI, 2004)
Several values for one entry are separate records, joined by “and”; a condition that tells them apart may be missing. Identical values can stand only once. Toxic doses and inconclusive results are not listed. Rule as the data show it: active = T/C of 150% or more; inactive = T/C below 125%.

Test system: L1210 leukemia ip in BDF1 mice, survival T/C
Assay: NCI In Vivo Anticancer Drug Screen. Data for tumor model L1210 Leukemia (intraperitoneal) in B6D2F1 (BDF1) mice
Settings: endpoint: mean survival time, higher = longer survival
Outline: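 Value reflects the ratio of survival in compound-treated mice to survival in vehicle-treated controls, with both groups carrying the same transplanted tumor.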

[1] = dose: 100.0 mg/kg/injection, schedule: Q01DX001 (ip), vehicle: saline
[2] = dose: 200.0 mg/kg/injection, schedule: Q01DX001 (ip), vehicle: saline
[3] = dose: 400.0 mg/kg/injection, schedule: Q01DX001 (ip), vehicle: saline
[4] = dose: 100.0 mg/kg/injection, schedule: Q04DX003 (ip), vehicle: saline with Tween-80
[5] = dose: 100.0 mg/kg/injection, schedule: Q01DX009 (ip), vehicle: Klucel (hydroxypropylcellulose) (HPC)
[6] = dose: 200.0 mg/kg/injection, schedule: Q01DX009 (ip), vehicle: Klucel (hydroxypropylcellulose) (HPC)
[7] = dose: 400.0 mg/kg/injection, schedule: Q01DX009 (ip), vehicle: Klucel (hydroxypropylcellulose) (HPC)
[8] = dose: 50.0 mg/kg/injection, schedule: Q01DX009 (ip), vehicle: saline
[9] = dose: 100.0 mg/kg/injection, schedule: Q01DX009 (ip), vehicle: saline
[10] = dose: 100.0 mg/kg/injection, schedule: Q04DX003 (ip), vehicle: saline
[11] = dose: 200.0 mg/kg/injection, schedule: Q01DX009 (ip), vehicle: saline
[12] = dose: 200.0 mg/kg/injection, schedule: Q04DX003 (ip), vehicle: saline

Measured: T/C

CC(C)(Oc1ccc(Cl)cc1)C(=O)O
inactive: [1] 101 % of control | [2] 101 % of control | [3] 98 % of control

Cc1cc([N+](=O)[O-])ccn1
inactive: dose: 100.0 mg/kg/injection, schedule: Q01DX009 (ip), vehicle: saline with Tween-80 94 % of control | dose: 200.0 mg/kg/injection, schedule: Q01DX009 (ip), vehicle: saline with Tween-80 93 % of control

N#CCCP(CCC#N)CCCCCCP(CCC#N)CCC#N
inactive: dose: 25.0 mg/kg/injection, schedule: Q04DX003 (ip), vehicle: saline with Tween-80 97 % of control | dose: 50.0 mg/kg/injection, schedule: Q04DX003 (ip), vehicle: saline with Tween-80 90 % of control | [4] 96 % of control and 90 % of control

Brc1cc(Br)c(/C=C/c2c(Br)cc(Br)cc2Br)c(Br)c1
inactive: [5] 104 % of control | [6] 102 % of control | [7] 105 % of control

CCCCOC(=O)CCCCC(=O)OCCCC
inactive: [5] 104 % of control | [6] 100 % of control | [7] 95 % of control

CCN(CC)Cc1c(C)[nH]c2ccc(N(C)C)cc2c1=O
inactive: [8] 101 % of control | [9] 106 % of control | [10] 115 % of control | [11] 92 % of control | [12] 109 % of control

CC(C)(C)OC(=O)/N=N/C(=O)OC(C)(C)C
inactive: dose: 100.0 mg/kg/injection, schedule: Q01DX001 (ip), vehicle: carboxymethylcellulose (CMC) 102 % of control | dose: 200.0 mg/kg/injection, schedule: Q01DX001 (ip), vehicle: carboxymethylcellulose (CMC) 94 % of control | dose: 400.0 mg/kg/injection, schedule: Q01DX001 (ip), vehicle: carboxymethylcellulose (CMC) 94 % of control

CCCCCCCC(=O)N(CCN(N=O)C(=O)CCCCCCC)N=O
inactive: [1] 95 % of control | [3] 90 % of control

CC12CCC(CC1)C2C(=O)O (stereo unspecified)
inactive: dose: 75.0 mg/kg/injection, schedule: Q01DX009 (ip), vehicle: saline with Tween-80 106 % of control | [4] 102 % of control | dose: 150.0 mg/kg/injection, schedule: Q01DX009 (ip), vehicle: saline with Tween-80 93 % of control | dose: 200.0 mg/kg/injection, schedule: Q04DX003 (ip), vehicle: saline with Tween-80 98 % of control | dose: 300.0 mg/kg/injection, schedule: Q01DX009 (ip), vehicle: saline with Tween-80 98 % of control | dose: 400.0 mg/kg/injection, schedule: Q04DX003 (ip), vehicle: saline with Tween-80 102 % of control

COc1cc2c(cc1OC)-c1cc3ccc(OC)c(OC)c3c[n+]1CC2
inactive: dose: 6.25 mg/kg/injection, schedule: Q04DX003 (ip), vehicle: saline 105 % of control | dose: 12.5 mg/kg/injection, schedule: Q04DX003 (ip), vehicle: saline 101 % of control | dose: 25.0 mg/kg/injection, schedule: Q04DX003 (ip), vehicle: saline 103 % of control

c1ccc(CN2CCC(N3CCCC3)CC2)cc1
inactive: [8] 101 % of control | [9] 95 % of control | [10] 109 % of control | [11] 94 % of control | [12] 101 % of control

CNCCc1ccccc1
inactive: [1] 107 % of control | [2] 108 % of control

Cc1ccc(/C=C/[N+](=O)[O-])cc1
inactive: dose: 6.25 mg/kg/injection, schedule: Q01DX009 (ip), vehicle: saline sonified 100 % of control | dose: 6.25 mg/kg/injection, schedule: Q04DX003 (ip), vehicle: Klucel (hydroxypropylcellulose) (HPC) 97 % of control | dose: 12.5 mg/kg/injection, schedule: Q01DX009 (ip), vehicle: saline sonified 101 % of control | dose: 12.5 mg/kg/injection, schedule: Q04DX003 (ip), vehicle: Klucel (hydroxypropylcellulose) (HPC) 97 % of control | dose: 25.0 mg/kg/injection, schedule: Q01DX009 (ip), vehicle: saline sonified 101 % of control | dose: 25.0 mg/kg/injection, schedule: Q04DX003 (ip), vehicle: Klucel (hydroxypropylcellulose) (HPC) 93 % of control
